Test results: PubChem BioAssay (NCI)
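In this assay, cells in 96-well plates receive the compound at five concentrations for 48 hours. Endpoints are linearly interpolated between the surrounding concentrations. TGI: concentration producing complete growth inhibition.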 Calls of active or inactive are those of the source. Cut-off read from the data, not from the text of the source: active = GI50 below about 0.43 µM; inactive = the rest.

What was measured:
Assay in all cases: NCI-60 cell line screen, 48 h
OVCAR-5 ovarian = system: OVCAR-5 ovarian
SNB-75 CNS = system: SNB-75 CNS
SK-OV-3 ovarian = system: SK-OV-3 ovarian
U251 CNS = system: U251 CNS
UO-31 renal = system: UO-31 renal
CCRF-CEM leukemia = system: CCRF-CEM leukemia
RXF 393 renal = system: RXF 393 renal
M14 melanoma = system: M14 melanoma
HL-60(TB) leukemia = system: HL-60(TB) leukemia
KM12 colon = system: KM12 colon
LXFL 529 NSCLC = system: LXFL 529 NSCLC
HOP-62 NSCLC = system: HOP-62 NSCLC
RPMI-8226 leukemia = system: RPMI-8226 leukemia
OVCAR-3 ovarian = system: OVCAR-3 ovarian
DMS 114 small cell lung = system: DMS 114 small cell lung
OVCAR-8 ovarian = system: OVCAR-8 ovarian
COLO 205 colon = system: COLO 205 colon
EKVX NSCLC = system: EKVX NSCLC
HT29 colon = system: HT29 colon
UACC-257 melanoma = system: UACC-257 melanoma
SN12C renal = system: SN12C renal
K-562 leukemia = system: K-562 leukemia
NCI-H522 lung = system: NCI-H522 lung
DMS 273 small cell lung = system: DMS 273 small cell lung
XF 498 CNS = system: XF 498 CNS
NCI-H23 lung = system: NCI-H23 lung
DLD-1 colon = system: DLD-1 colon
NCI-H226 lung = system: NCI-H226 lung
ACHN renal = system: ACHN renal
786-0 renal = system: 786-0 renal
SNB-19 CNS = system: SNB-19 CNS
KM20L2 colon = system: KM20L2 colon
UACC-62 melanoma = system: UACC-62 melanoma
SF-295 CNS = system: SF-295 CNS
MALME-3M melanoma = system: MALME-3M melanoma
SK-MEL-2 melanoma = system: SK-MEL-2 melanoma
SF-268 CNS = system: SF-268 CNS
HCT-15 colon = system: HCT-15 colon
IGROV1 ovarian = system: IGROV1 ovarian
HOP-92 NSCLC = system: HOP-92 NSCLC
MOLT-4 leukemia = system: MOLT-4 leukemia
NCI-H460 lung = system: NCI-H460 lung
TK-10 renal = system: TK-10 renal
SR leukemia = system: SR leukemia
LOX IMVI melanoma = system: LOX IMVI melanoma
A549 NSCLC = system: A549 NSCLC
CAKI-1 renal = system: CAKI-1 renal
SW-620 colon = system: SW-620 colon
SNB-78 CNS = system: SNB-78 CNS
SF-539 CNS = system: SF-539 CNS
HCC-2998 colon = system: HCC-2998 colon
M19-MEL melanoma = system: M19-MEL melanoma
HCT-116 colon = system: HCT-116 colon
OVCAR-4 ovarian = system: OVCAR-4 ovarian
A498 renal = system: A498 renal
SK-MEL-28 melanoma = system: SK-MEL-28 melanoma
SK-MEL-5 melanoma = system: SK-MEL-5 melanoma

C[C@@]1(C(=O)c2ccccc2)N(c2ccccc2)[C@@]1(C)C(=O)c1ccccc1
outcome (OVCAR-5 ovarian): inactive | outcome (SNB-75 CNS): inactive | outcome (SK-OV-3 ovarian): inactive | outcome (U251 CNS): inactive | outcome (UO-31 renal): inactive | outcome (CCRF-CEM leukemia): inactive | outcome (RXF 393 renal): inactive | outcome (M14 melanoma): inactive | outcome (HL-60(TB) leukemia): inactive | outcome (KM12 colon): inactive | outcome (LXFL 529 NSCLC): inactive | outcome (HOP-62 NSCLC): inactive | outcome (RPMI-8226 leukemia): inactive | outcome (OVCAR-3 ovarian): inactive | outcome (DMS 114 small cell lung): inactive | outcome (OVCAR-8 ovarian): inactive | outcome (COLO 205 colon): inactive | outcome (EKVX NSCLC): inactive | outcome (HT29 colon): inactive | outcome (UACC-257 melanoma): inactive | outcome (SN12C renal): inactive | outcome (K-562 leukemia): inactive | outcome (NCI-H522 lung): inactive | outcome (DMS 273 small cell lung): inactive | outcome (XF 498 CNS): inactive | outcome (NCI-H23 lung): inactive | outcome (DLD-1 colon): inactive | outcome (NCI-H226 lung): inactive | outcome (ACHN renal): inactive | outcome (786-0 renal): inactive | outcome (SNB-19 CNS): inactive | outcome (KM20L2 colon): inactive | outcome (UACC-62 melanoma): inactive | outcome (SF-295 CNS): inactive | outcome (MALME-3M melanoma): inactive | outcome (SK-MEL-2 melanoma): inactive | outcome (SF-268 CNS): inactive | outcome (HCT-15 colon): inactive | outcome (IGROV1 ovarian): inactive | outcome (HOP-92 NSCLC): inactive | outcome (MOLT-4 leukemia): inactive | outcome (NCI-H460 lung): inactive | outcome (TK-10 renal): inactive | outcome (SR leukemia): inactive | outcome (LOX IMVI melanoma): inactive | outcome (A549 NSCLC): inactive | outcome (CAKI-1 renal): inactive | outcome (SW-620 colon): inactive | outcome (SNB-78 CNS): inactive | outcome (SF-539 CNS): inactive

O=C1c2cccc(O)c2C(=O)c2cccc(O)c21
TGI (OVCAR-5 ovarian): > 100 µM | TGI (SNB-75 CNS): > 100 µM | TGI (U251 CNS): > 100 µM | TGI (UO-31 renal): > 100 µM | TGI (CCRF-CEM leukemia): > 100 µM | TGI (RXF 393 renal): > 100 µM | TGI (M14 melanoma): > 100 µM | TGI (KM12 colon): > 100 µM | TGI (LXFL 529 NSCLC): > 100 µM | TGI (HOP-62 NSCLC): > 100 µM | TGI (RPMI-8226 leukemia): > 100 µM | TGI (OVCAR-3 ovarian): > 100 µM | TGI (OVCAR-8 ovarian): > 100 µM | TGI (HCC-2998 colon): > 100 µM | TGI (COLO 205 colon): > 100 µM | TGI (EKVX NSCLC): > 100 µM | TGI (M19-MEL melanoma): > 100 µM | TGI (HT29 colon): > 100 µM | TGI (UACC-257 melanoma): > 100 µM | TGI (SN12C renal): > 100 µM | TGI (K-562 leukemia): > 100 µM | TGI (HCT-116 colon): > 100 µM | TGI (NCI-H522 lung): > 100 µM | TGI (DMS 273 small cell lung): > 100 µM | TGI (XF 498 CNS): > 100 µM | TGI (NCI-H23 lung): > 100 µM | TGI (DLD-1 colon): > 100 µM | TGI (NCI-H226 lung): > 100 µM | TGI (ACHN renal): > 100 µM | TGI (786-0 renal): > 100 µM | TGI (SNB-19 CNS): > 100 µM | TGI (UACC-62 melanoma): > 100 µM | TGI (OVCAR-4 ovarian): > 100 µM | TGI (SF-295 CNS): > 100 µM | TGI (SK-MEL-2 melanoma): > 100 µM | TGI (SF-268 CNS): > 100 µM | TGI (HCT-15 colon): > 100 µM | TGI (A498 renal): > 100 µM | TGI (IGROV1 ovarian): > 100 µM | TGI (HOP-92 NSCLC): > 100 µM | TGI (MOLT-4 leukemia): > 100 µM | TGI (NCI-H460 lung): > 100 µM | TGI (TK-10 renal): > 100 µM | TGI (LOX IMVI melanoma): > 100 µM | TGI (A549 NSCLC): > 100 µM | TGI (CAKI-1 renal): > 100 µM | TGI (SW-620 colon): > 100 µM | TGI (SNB-78 CNS): > 100 µM | TGI (SF-539 CNS): > 100 µM

Cc1nc(N)nn1C1OCC(O)C(O)C1O (stereo not given)
TGI (SK-MEL-28 melanoma): > 100 µM | TGI (SNB-75 CNS): > 100 µM | TGI (SK-OV-3 ovarian): > 100 µM | TGI (U251 CNS): > 100 µM | TGI (UO-31 renal): > 100 µM | TGI (CCRF-CEM leukemia): > 100 µM | TGI (RXF 393 renal): > 100 µM | TGI (M14 melanoma): > 100 µM | TGI (SK-MEL-5 melanoma): > 100 µM | TGI (HL-60(TB) leukemia): > 100 µM | TGI (KM12 colon): > 100 µM | TGI (LXFL 529 NSCLC): > 100 µM | TGI (HOP-62 NSCLC): > 100 µM | TGI (RPMI-8226 leukemia): > 100 µM | TGI (OVCAR-3 ovarian): > 100 µM | TGI (DMS 114 small cell lung): > 100 µM | TGI (OVCAR-8 ovarian): > 100 µM | TGI (HCC-2998 colon): > 100 µM | TGI (COLO 205 colon): > 100 µM | TGI (EKVX NSCLC): > 100 µM | TGI (HT29 colon): > 100 µM | TGI (UACC-257 melanoma): > 100 µM | TGI (SN12C renal): > 100 µM | TGI (K-562 leukemia): > 100 µM | TGI (HCT-116 colon): > 100 µM | TGI (NCI-H522 lung): > 100 µM | TGI (DMS 273 small cell lung): > 100 µM | TGI (XF 498 CNS): > 100 µM | TGI (NCI-H23 lung): > 100 µM | TGI (DLD-1 colon): > 100 µM | TGI (ACHN renal): > 100 µM | TGI (786-0 renal): > 100 µM | TGI (SNB-19 CNS): > 100 µM | TGI (KM20L2 colon): > 100 µM | TGI (UACC-62 melanoma): > 100 µM | TGI (OVCAR-4 ovarian): > 100 µM | TGI (SF-295 CNS): > 100 µM | TGI (MALME-3M melanoma): > 100 µM | TGI (SK-MEL-2 melanoma): > 100 µM | TGI (SF-268 CNS): > 100 µM | TGI (HCT-15 colon): > 100 µM | TGI (A498 renal): > 100 µM | TGI (IGROV1 ovarian): > 100 µM | TGI (MOLT-4 leukemia): > 100 µM | TGI (NCI-H460 lung): > 100 µM | TGI (TK-10 renal): > 100 µM | TGI (A549 NSCLC): > 100 µM | TGI (CAKI-1 renal): > 100 µM | TGI (SW-620 colon): > 100 µM | TGI (SNB-78 CNS): > 100 µM | TGI (SF-539 CNS): > 100 µM
